The values that follow come from patent US5753661A, “Fused benzo compounds containing a nitrogen heterocycle for the treatment of central nervous system disorders” (priority 1992, dated 1998).

Assay [1] has as its target T1, 5-HT1A receptor (Rattus norvegicus, UniProt P19327).
T1 sequence (P19327 1-422): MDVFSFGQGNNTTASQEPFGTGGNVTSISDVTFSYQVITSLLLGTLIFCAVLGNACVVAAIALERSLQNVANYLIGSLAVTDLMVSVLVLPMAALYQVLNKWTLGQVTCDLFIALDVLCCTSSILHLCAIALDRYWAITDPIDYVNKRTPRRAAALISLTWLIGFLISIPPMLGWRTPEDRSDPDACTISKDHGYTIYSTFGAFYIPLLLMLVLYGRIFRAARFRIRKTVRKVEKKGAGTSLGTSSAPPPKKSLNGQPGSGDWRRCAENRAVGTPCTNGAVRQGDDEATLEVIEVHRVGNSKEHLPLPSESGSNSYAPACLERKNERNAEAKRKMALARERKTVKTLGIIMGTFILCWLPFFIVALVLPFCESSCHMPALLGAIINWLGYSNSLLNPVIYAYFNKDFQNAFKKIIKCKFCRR
The assay can be described thus: Generalization to the discriminative stimulus properties induced by 8-OH-DPAT in rats (8-OH-DPAT cue, agonism). The format is in vivo, rat (male Wistar). More on the design: from tissue; host or cells: living male Wistar rat (in vivo, endogenous receptor). Conditions: for ED50: rat, sc, usually 30 or 45 min before test; for agonist activity/efficacy in words, 8-OH-DPAT cue: 8-OH-DPAT cue model, s.c. The text has this:
Generalization to the Discriminative Stimulus Properties Induced by 8-OH-DPAT in Rats
This test is used to determine the 5-HT1A receptor agonistic effect of a test compound in vivo. A related method is described by Tricklebank, M. D., supra; Amt, J. Pharmacology & Toxicology, 1989, 64, 165.
The per cent drug responce obtained for each dose of test compound is used to calculate ED50 values by log-probit analysis.

Assay [2] deals with T1, 5-HT1A receptor. In words: Inhibition of 5-MeO-DMT-induced 5-HT syndrome in rats. Format: in vivo, rat (male Wistar). More on the design: Male Wistar rats (Mol:Wist) weighing 170-240 g are used; from tissue; host or cells: living male Wistar rat (Mol:Wist) (in vivo, endogenous receptor). Conditions: sc, 5-MeO-DMT 5 mg/kg s.c., inhibition of piano playing. The text has this: Inhibition of 5-MeO-DMT-Induced 5-HT Syndrome in Rats
The so-called 5-HT syndrome is a characteristic pattern of behaviours which are induced by 5-HT agonists with effects on 5-HT, possibly 5-HT1A receptors (Smith, L. M. and Peroutka, S. J., Pharmacol. Biochem. & Behaviour, 1986, 24, 1513; Tricklebank, M. et al, Eur. J. Pharmacol. 1985, 117, 15). This test is a test for determining the antagonist effects of a test compound on 5-HT1A receptors in vivo by measuring the ability to inhibit 5-MeO-DMT induced 5-HT syndrome.
Male Wistar rats (Mol:Wist) weighing 170-240 g are used. Test substance is injected s.c. before 5-MeO-DMT 5 mg/kg, s.c. Four rats are used for each dose. A control group pretreated with saline is included each test day. 10, 15 and 20 min later the rats are observed for presence of serotonin (5-HT) syndrome. The following symptoms are recorded: 1) forepaw treading ("piano playing"), 2) head weaving and 3) hindleg abduction. Furthermore, flat motility is scored. Each part of the syndrome is scored as follows: marked effect (score 2), weak syndrome (score 1) and no effect (score 0). The scores of the three observation periods are added. Thus the maximum obtainable score for four rats is 24. The effect of the test substance is expressed as percent inhibition relative to the control group.
The percent inhibition of the piano playing syndrome is used as the response and ED50 value are calculated by log-probit analysis.

The target of assay [3] is T1, 5-HT1A receptor. The assay can be described thus: Inhibition of 3H-8-OH-DPAT binding to serotonin 5-HT1A receptors in rat brain in vitro. More on the design: 5-HT1A receptors in membranes from rat brain minus cerebellum; from tissue; host or cells: rat brain minus cerebellum, membranes. Conditions: 3H-8-OH-DPAT 1 nM; membranes from rat brain minus cerebellum; read-out: IC50, 3H 8-OH-DPAT binding. As to the method: Inhibition of ^3 H-8-OH-DPAT Binding to Serotonin 5-HT1A Receptors in Rat Brain in vitro.
By this method the inhibition by drugs of the binding of the 5-HT1A agonist 3H-8-OH-DPAT (1 nM) to 5-HT1A receptors in membranes from rat brain minus cerebellum is determined in vitro . Accordingly, this is a test for affinity for the 5-HT1A receptor. The assay was performed as described by Hyttel et al., Drug Dev. Res. 1988, 15, 389-404.

Assay [4] deals with T1, 5-HT1A receptor. In words: Antagonism of the discriminative stimulus properties induced by 8-OH-DPAT in rats (8-OH-DPAT cue). The format is in vivo, rat (male Wistar). More on the design: from tissue; host or cells: living male Wistar rat (in vivo, endogenous receptor). Conditions: sc, before 8-OH-DPAT 0.4 mg/kg i.p. As to the method: Antagonism of the Discriminative Stimulus Properties Induced by 8-OH-DPAT in Rats.
This test is used to determine the 5-HT1A receptor antagonistic effect of a test compound in vivo. A related method is described by Tricklebank, M. D., et al, Eur. J. Pharmacol, 1987, 133, 47-56; Amt, J. Pharmacology & Toxicology, 1989, 64, 165.
Male Wistar rats are trained to discriminate between 8-OH-DPAT (0.4 mg/kg, i.p., 15 min pretreatment) and physiological saline in operant chambers equipped with two response levers. Between the levers a dipper is placed, where water rewards (0.1 ml) are presented. The rats are water deprived for at least 24 h and work in a fixed ratio (FR) schedule (final FR=32).
Following 8-OH-DPAT administration, responding is reinforced only on a designated (drug) lever, whereas responding on the opposite lever has no consequences. Following saline administration, responding is reinforced on the lever opposite to the drug lever. Drug and saline trials alternate randomly between days. The level of discrimination accuracy is expressed as the per cent drug responses and is calculated as the number of correct responses ×100 divided by the sum of the correct and incorrect responses before the first reward. The time to the first reward is also recorded as a measure of reaction time. When stable accuracy (mean correct responding=90%; individual rats at least 75% correct responding) is obtained test sessions are included between training days. Test compound is injected s.c. or p.o. at appropriate time before 8-OH-DPAT and the test begins 15 min after 8-OH-DPAT injection. The test trial is terminated when a total of 32 responses are made on either lever or when 20 min have elapsed. No reward is given and the rats have free access to water for 20-30 min after the test. The effects are expressed as per cent inhibition of drug responding. Only results from rats making at least 10 responses on one lever are included in data analysis. Furthermore, only test sessions in which at least half of the rats respond are included.
The per cent inhibition of drug response obtained for each dose of test compound is used to calculate ED50 values by log-probit analysis.

As a reminder, the ED50 is the midpoint of the dose-response relation. In general, IC50 refers to the midpoint of a concentration-inhibition curve. As to `O=S(=O)(CCCN1CCN(c2cccc3c2OCCO3)CC1)C12CC3CC(CC(C3)C1)C2` [Compound 1f, 1-[3-(1-Adamantyl)sulfonyl-1-propyl]-4-(1,4-benzodioxan-5-yl)piperazine], the ED50 turned out to be 0.052 µmol/kg on 5-HT1A receptor [1] and 0.47 µmol/kg on 5-HT1A receptor [2]. Moreover, on 5-HT1A receptor [3], the IC50 amounted to 1.1 nM.

Consider `O=C1N(CCN2CCN(c3cccc4c3OCCO4)CC2)CCN1C1CCCCC1` [Compound 2d, 1-[2-[4-(1,4-Benzodioxan-5-yl)-1-piperazinyl]ethyl]-3-cyclohexyl-2-imidazolidinone], for which the “agonist activity/efficacy in words, 8-OH-DPAT cue” value at 5-HT1A receptor [1] was “partial agonist”. Also, on 5-HT1A receptor [1] (at 0.08-19 μmol/kg, s.c. (note b)), the “response, 8-OH-DPAT cue agonism” value is recorded as 30-50%. Also, the ED50 at 5-HT1A receptor [2] worked out at 10 µmol/kg; on 5-HT1A receptor [4], 6.3 µmol/kg.

With `O=C1N(CCN2CCN(c3cccc4[nH]ccc34)CC2)CCN1C1CCCC1` [Compound 2y, 1-Cyclopentyl-3-[2-[4-(4-indolyl)-1-piperazinyl]ethyl]-2-imidazolidinone], the results for the ED50 on 5-HT1A receptor [2] and on 5-HT1A receptor [4] were 2.7 µmol/kg and 1.9 µmol/kg, respectively. In addition, the IC50 on 5-HT1A receptor [3] came out at 28 nM.

As for `O=C1N(CCCN2CCN(c3cccc4c3OCCO4)CC2)CCN1c1ccccc1` [Compound 2a, 1-[3-[4-(1,4-Benzodioxan-5-yl)-1-piperazinyl]-1-propyl]-3-phenyl-2-imidazolidinone], the ED50 was 3.1 µmol/kg on 5-HT1A receptor [1], 6.6 µmol/kg at 5-HT1A receptor [2] and over 11 µmol/kg at 5-HT1A receptor [4]. Moreover, the IC50 at 5-HT1A receptor [3] stood at 16 nM.

With `O=S(=O)(CCCN1CCN(c2cccc3c2OCC3)CC1)C1CCCCC1` [Compound 1c, 1-(3-Cyclohexylsulfonyl-1-propyl)-4-(2,3-dihydrobenzofuran-7-yl)piperazine], the ED50 at 5-HT1A receptor [1] stood at 0.069 µmol/kg; on 5-HT1A receptor [2] it was 12 µmol/kg. Further, the IC50 on 5-HT1A receptor [3] amounted to 2.6 nM.

As for `O=C1N(CCN2CCN(c3cccc4c3OCCO4)CC2)CCN1c1ccccc1` [Compound 2c, 1-[2-[4-(1,4-Benzodioxan-5-yl)-1-piperazinyl]ethyl]-3-phenyl-2-imidazolidinone], the ED50 is 0.76 µmol/kg on 5-HT1A receptor [1], 15 µmol/kg at 5-HT1A receptor [2] and over 2.6 µmol/kg at 5-HT1A receptor [4]. Moreover, the IC50 on 5-HT1A receptor [3] amounted to 13 nM.

`O=c1n(CCN2CCN(c3cccc4c3OCCO4)CC2)ccn1-c1ccc(F)cc1` [Compound 5a, 1-[3-[4-(1,4-Benzodioxan-5-yl)-1-piperazinyl]-1-ethyl]-1,3-dihydro-3-(4-fluorophenyl)-2-imidazolone]: the ED50 on 5-HT1A receptor [1] is 1.8 µmol/kg; at 5-HT1A receptor [2], 12 µmol/kg. For the same compound, the IC50 on 5-HT1A receptor [3] was 11 nM.

Consider `CC(C)S(=O)(=O)CCCN1CCN(c2cccc3c2OCCO3)CC1` [Compound 1e, 1-(1,4-Benzodioxan-5-yl)-4-(3-isopropylsulfonyl-1-propyl)piperazine], for which the “agonist activity/efficacy in words, 8-OH-DPAT cue” value at 5-HT1A receptor [1] is given as “partial agonist”. At 5-HT1A receptor [1] (at 0.04-10 μmol/kg, s.c. (note a)), the “response, 8-OH-DPAT cue agonism” value was 30-75%. Also, the values for the ED50 on 5-HT1A receptor [2] and at 5-HT1A receptor [4] were 5.1 µmol/kg and over 10 µmol/kg, respectively. The IC50 on 5-HT1A receptor [3] was found to be 23 nM.

As to `CC(C)N1CCN(CCN2CCN(c3cccc4c3OCCO4)CC2)C1=O` [Compound 2o, 1-[2-[4-(1,4-Benzodioxan-5-yl)-1-piperazinyl]ethyl]-3-isopropyl-2-imidazolidinone], the values for the ED50 on 5-HT1A receptor [1], at 5-HT1A receptor [2] and at 5-HT1A receptor [4] were 27 µmol/kg, 9 µmol/kg and 23 µmol/kg, respectively. On 5-HT1A receptor [3], the IC50 worked out at 51 nM.

On to `CC1(C)Cc2cccc(N3CCN(CCN4CCN(C5CCCC5)C4=O)CC3)c2O1` [Compound 2p, 1-Cyclopentyl-3-[2-[4-(2,3-dihydro-2,2-dimethylbenzofuran-7-yl)-1-piperazinyl]ethyl]-2-imidazolidinone], for which the ED50 at 5-HT1A receptor [1] is 1.1 µmol/kg; at 5-HT1A receptor [2], 4.2 µmol/kg. Also, the IC50 on 5-HT1A receptor [3] came to 3.7 nM.

With `O=C1N(CCCN2CCN(c3cccc4c3OCC4)CC2)CCN1c1ccccc1` [Compound 2g, 1-[3-[4-(2,3-Dihydrobenzofuran-7-yl)-1-piperazinyl]-1-propyl]-3-phenyl-2-imidazolidinone], the ED50 on 5-HT1A receptor [1] was 1.6 µmol/kg; at 5-HT1A receptor [2], 10 µmol/kg; on 5-HT1A receptor [4], over 11 µmol/kg. Moreover, at 5-HT1A receptor [3], the IC50 is 37 nM.

For `O=S(=O)(CCCN1CCN(c2cccc3c2OCCO3)CC1)c1ccccc1` [Compound 1b, 1-(1,4-Benzodioxan-5-yl)-4-(3-phenylsulfonyl-1-propyl)piperazine], the ED50 at 5-HT1A receptor [1] came to 0.099 µmol/kg; at 5-HT1A receptor [2] it was 9.5 µmol/kg. In addition, the IC50 at 5-HT1A receptor [3] worked out at 7.8 nM.

As for `CC1(C)Cc2cccc(N3CCN(CCCCN4CCN(C5CCCCC5)C4=O)CC3)c2O1` [Compound 2bb, 1-Cyclohexyl-3-[4-[4-(2,3-dihydro-2,2-dimethylbenzofuran-7-yl)-1-piperazinyl]-1-butyl]-2-imidazolidinone], the ED50 is 0.036 µmol/kg on 5-HT1A receptor [1] and 0.78 µmol/kg on 5-HT1A receptor [2]. Moreover, on 5-HT1A receptor [3], the IC50 was found to be 0.92 nM.

On to `O=C1N(CCN2CCN(c3cccc4c3OCC4)CC2)CCN1C1CCCC1` [Compound 2f, 1-Cyclopentyl-3-[2-[4-(2,3-dihydrobenzofuran-7-yl)-1-piperazinyl]ethyl]-2-imidazolidinone], for which the figures for the ED50 at 5-HT1A receptor [1] and on 5-HT1A receptor [2] were 40 µmol/kg and 28 µmol/kg, respectively. At 5-HT1A receptor [3], the IC50 worked out at 54 nM.

In the case of `[O-][S+](CCCN1CCN(c2cccc3c2OCCO3)CC1)C1CCCCC1` (stereo not shown) [Compound 3a, 1-(1,4-Benzodioxan-5-yl)-4-(3-cyclohexylthio-1-propyl)piperazine S-oxide], the ED50 on 5-HT1A receptor [1] is 0.02 µmol/kg; at 5-HT1A receptor [2], 5.2 µmol/kg. At 5-HT1A receptor [3], the IC50 was 1.8 nM.
